Results: patent publication US3980794A, “Method for promoting growth of poultry with 3-(5-nitro-2-imidazolyl)pyrazoles” (Eli Lilly and Company, priority 1975, dated 1976)
In brackets after ≈: the same amount, converted by molar mass.

Key:
Treponema hyodysenteriae = test: In vitro activity against Treponema hyodysenteriae (Experiment 8); assay type: cell-based; conditions: Brachyspira hyodysenteriae; repeat test, doubling dilutions 100 to 0.048 mcg./ml.; read-out: minimum inhibitory concentration (MIC)
Method: A number of representative compounds, namely, 1, 5, 6, 7, 12, 13D, 14, and 18, were tested for their in vitro activity against Treponema hyodysenteriae. The treponema were propagated on blood agar plates. Each plate which was prepared contained 20 ml. of trypticase soy agar (Baltimore Biological Laboratory [BBL]) with 5.0 g./l. of yeast extract (Difco) and 5 percent sterile defibrinated horse blood. The plates were sterile plastic 15 × 100 mm. petri plates. Incubation was carried out at 37°C. for 4 days under anaerobic conditions using the BBL Gas Pak system.
The concentrations of test compounds in this initial test were prepared in dilutions ranging from 2000 mcg./ml. to 7.8 mcg./ml. The test procedure was carried out in the following manner. Five ml. of a twenty-fold concentration in tryptose broth (Difco) of each filter-sterilized test compound dilution was mixed in a series of flasks containing 90 ml. of melted trypticase soy agar with yeast extract. Five ml. of horse blood was then added per flask. The contents of these flasks were then used to prepare a series of blood agar plates in doubling decreasing dilutions ranging from 100 mcg./ml. to 0.39 mcg./ml.
The treponema for inoculation of these plates were obtained by adding 3.0 ml. of sterile tryptose broth to the surface of a plate on which the treponema had been propagated. […]

[1] = system: Pasteurella multocida and Pasteurella hemolytica; test: In vivo activity against pasteurellosis in calves (Experiment 10)
Method: The in vivo activity of compound 1 against pasteurellosis in calves was determined in the following manner. Twelve calves weighing approximately 180 pounds each were obtained from a commercial source and were brought to the research facility where they were weighed individually and identified by ear tag. The calves were divided into two groups of six calves each, and two hundred thousand ascaris ova were administered to each calf seven days prior to the pasteurella challenge. […] The compound was administered orally in two equal doses of 2000 mg. each, using capsules containing 500 mg. of compound each. The actual dosage of the test compound ranged from about 45 to about 55 mg. per kilo per head per day. The treatment was initiated one day prior to the pasteurella challenge and was continued daily for a total of seven days. […] The pasteurella challenge was prepared using three isolates of Pasteurella multocida and three isolates of Pasteurella hemolytica, all of bovine origin. The isolates were grown in tryptose culture for about 18 hours and then mixed in equal parts in a challenge cocktail. Approximately 0.1 ml. was used to aerosol-expose each calf. This exposure was carried out by placing a plastic bag over the head of each calf and running the aerosol into the bag. The pasteurella challenge was timed to coincide with the period of mechanical injury to the lung tissue caused by the […] larvae migration. […] All the calves were sacrificed on the tenth day post-pasteurella challenge, and the extent of pneumonic lesions in the lung tissues noted. Thus, after the calves were sacrificed, the lungs were removed from each calf and examined for lesions grossly. In addition, attempts were made to re-isolate pasteurella from the pneumonic lung tissue.

Salmonella choleraesuis = test: In vivo activity against Salmonella choleraesuis in pigs (Experiment 14)
Method: The in vivo activity of compound 1 against Salmonella choleraesuis was determined in the following manner.
Twenty-four healthy feeder pigs were purchased from a local farm and brought to the research facility where they were weighed individually and identified by ear tag. Four groups of six pigs each were formed so that the average pig weight per group was similar.
Two groups of pigs were given compound 1 at a level of 50 g./ton in the feed. The remaining two groups of pigs were fed the same basal ration without compound 1. Twenty-four hours after initiation of the compound 1 feed treatment, all four groups were challenged orally using 10 ml. of a broth culture of Salmonella choleraesuis.
The pigs were weighed weekly throughout the duration of the experiment and on the 28th day postsalmonella challenge, each surviving pig was killed and the salmonella-caused lesions were recorded. Chart 14, which follows, contains a summary of the results from the trial.

Aeromonas liquefaciens = test: In vitro activity against fish bacterial pathogens, tube dilution (Experiment 13); conditions: Aeromonas hydrophila, read-out: minimum inhibitory concentration (MIC), Aeromonas liquetaciens
[2] = 50 g./ton continuous, total of both replicates

In the case of `Cn1nc(-c2ncc([N+](=O)[O-])n2C)c(C#N)c1N` [Compound 1, 5-Amino-1-methyl-3-(1-methyl-5-nitro-2-imidazolyl)pyrazole-4-carbonitrile], the MIC (Treponema hyodysenteriae) was 0.097 mg/L (≈ 0.392 µM), the “pasteurella colonies in lungs of a third treated calf” value ([1]; at necropsy) was “only three pasteurella colonies” and the “calves with moderate number of pasteurella colonies in lungs” value ([1]; at necropsy, six calves) was “Another treated calf”. The “calves with numerous colonies of pasteurella in lungs” value ([1]; at necropsy, six calves) was “One of the treated calves”, the “calves yielding no pasteurella from the lung tissue” value ([1]; at necropsy, six calves) was “Three of the treated calves” and the “treatment response (control of lung lesions and reisolation of pasteurella)” value ([1]; oral, about 45 to about 55 mg. per kilo per day) was “All the calves treated with compound 1 showed a treatment response”. For the same compound, the body temperature ([1]; oral, about 45 to about 55 mg. per kilo per head per day, versus infected control) was “considerably lower”, the “calves with moderate pneumonic lung lesion” value ([1]; oral, tenth day post-challenge, six calves) was “A single treated calf” and the mortality (Salmonella choleraesuis; 50 g./ton continuous) was “prevented mortality”. For the same compound, the “Mean Pig Wt.” value (Salmonella choleraesuis; 50 g./ton continuous, Avg., day 0) was 30.0 Lbs, the “Mean Pig Wt.” value (Salmonella choleraesuis; 50 g./ton continuous, Avg., day 7) was 31.8 Lbs and the “Mean Pig Wt.” value (Salmonella choleraesuis; 50 g./ton continuous, Avg., day 14) was 33.5 Lbs. The “Mean Pig Wt.” value (Salmonella choleraesuis; 50 g./ton continuous, Avg., day 21) was 39.4 Lbs, the “Mean Pig Wt.” value (Salmonella choleraesuis; 50 g./ton continuous, Avg., day 28) was 45.5 Lbs and the “Lesions at Necropsy” value (Salmonella choleraesuis; 50 g./ton continuous, Rep. 1) was 2/6. For the same compound, the “No. Dead/No. in Grp.” value (Salmonella choleraesuis; 50 g./ton continuous, Rep. 1) was 0/6, the “Mean Pig Wt.” value (Salmonella choleraesuis; 50 g./ton continuous, Rep. 1, day 0) was 30.2 Lbs and the “Mean Pig Wt.” value (Salmonella choleraesuis; 50 g./ton continuous, Rep. 1, day 7) was 32.5 Lbs. For the same compound, the “Mean Pig Wt.” value (Salmonella choleraesuis; 50 g./ton continuous, Rep. 1, day 14) was 33.8 Lbs, the “Mean Pig Wt.” value (Salmonella choleraesuis; 50 g./ton continuous, Rep. 1, day 21) was 38.8 Lbs and the “Mean Pig Wt.” value (Salmonella choleraesuis; 50 g./ton continuous, Rep. 1, day 28) was 44.2 Lbs. The “Lesions at Necropsy” value (Salmonella choleraesuis; 50 g./ton continuous, Rep. 2) was 1/6, the “No. Dead/No. in Grp.” value (Salmonella choleraesuis; 50 g./ton continuous, Rep. 2) was 0/6 and the “Mean Pig Wt.” value (Salmonella choleraesuis; 50 g./ton continuous, Rep. 2, day 0) was 29.7 Lbs. The “Mean Pig Wt.” value (Salmonella choleraesuis; 50 g./ton continuous, Rep. 2, day 7) was 31.0 Lbs, the “Mean Pig Wt.” value (Salmonella choleraesuis; 50 g./ton continuous, Rep. 2, day 14) was 33.2 Lbs and the “Mean Pig Wt.” value (Salmonella choleraesuis; 50 g./ton continuous, Rep. 2, day 21) was 40.0 Lbs. The “Mean Pig Wt.” value (Salmonella choleraesuis; 50 g./ton continuous, Rep. 2, day 28) was 46.7 Lbs, the “improved weight gain over that of infected pigs” value (Salmonella choleraesuis; 50 g./ton continuous, average) was 4.3 lbs./pig and the “Lesions at Necropsy” value (Salmonella choleraesuis; [2]) was 3/12. For the same compound, the “No. Dead/No. in Grp.” value (Salmonella choleraesuis; [2]) was 0/12, the “control of Salmonella choleraesuis in swine” value (Salmonella choleraesuis; compound 1 in the feed about 50 g./ton) was “effective in the control of Salmonella choleraesuis in swine” and the MIC (Aeromonas liquefaciens) was 3.12 mg/L (≈ 12.6 µM).
